Consider 32 molecules from patent publication US20240246918A1, “COMPOUNDS AND COMPOSITIONS AS EIF4E INHIBITORS AND THE USES THEREOF” (Ribometrix, Inc., priority 2022, published 2024).

As a reminder, the IC50 is the midpoint of a concentration-inhibition curve.

Assay [1] concerns COLO 205 colorectal tumor cells. The assay can be described thus: Tumor cell viability inhibition assay (CellTiter-Glo 2.0, 72 hours). The class given is cell-based. As to conditions: COLO 205 cell viability. In a few lines: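 IC50 derived by 4-parameter fitting after normalizing luminescence to DMSO and max-inhibition wells. Compounds tested as 11 concentrations in 4-fold steps on COLO 205 cells seeded at 1500 per well in RPMI-1640/10% FBS; ATP content measured with CellTiter-Glo 2.0 after 72 h.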
(Cellular ATP, detected with luciferase, serves as a proxy for viable cell number.)

The target of another assay is T1, human eIF4E protein (Homo sapiens, UniProt P06730).
T1 construct: purchased Novus NBP-45314
T1 sequence (P06730 whole entry): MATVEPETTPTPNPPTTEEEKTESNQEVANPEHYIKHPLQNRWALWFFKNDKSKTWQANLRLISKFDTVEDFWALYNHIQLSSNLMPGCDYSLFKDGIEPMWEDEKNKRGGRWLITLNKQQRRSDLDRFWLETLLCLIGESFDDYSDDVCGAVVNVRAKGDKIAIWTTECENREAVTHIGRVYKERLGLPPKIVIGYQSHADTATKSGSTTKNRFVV
Nature of the assay: Biochemical competitive binding assay (TR-FRET competition, EDA-m7GDP-ATTO-647N probe). As to conditions: read-out: hEIF4E TR-FRET IC50. In a few lines: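 IC50 values come from 4-parameter fits of the normalized 665/620 nm TR-FRET ratio. Compound was first incubated 15 min with 4 nM recombinant His-eIF4E bound to 2.5 nM Eu-anti-His antibody, then 15 min with 5 nM m7GDP-ATTO-647N tracer, in pH 7.5 HEPES buffer with 100 mM KCl, Tween-20 and BSA.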
In general terms: In TR-FRET formats the signal depends on donor and acceptor labels being close together.

On to `Cc1cc(-c2cc(Cl)ccc2OCCn2c(C)nc3c(c2=O)CC(C)(N2CCC(C(F)(F)F)CC2)CC3)c2scc(C(=O)O)c2n1` (single isomer, unassigned) [Compound 530], for which the IC50 was under 5 µM in assay [1] (Homo sapiens, COLO 205, 72 h) and under 0.1 µM on human eIF4E protein.
For `Cc1cc(-c2cc(Cl)ccc2OCCn2c(C)nc3c(c2=O)C[C@H](N2CCCC[C@H]2c2nccs2)CC3)c2scc(C(=O)O)c2n1` (single isomer, unassigned) [Compound 546], in that order: under 5 µM and under 0.1 µM.
For `COC1CCN([C@H]2CCc3nc(C)n(CCOc4ccc(Cl)cc4-c4cc(C)nc5c(C(=O)O)csc45)c(=O)c3[C@H]2C)CC1` (stereo in doubt) [Compound 102, 7-(5-chloro-2-(2-(6-(4-methoxypiperidin-1-yl)-2,5-dimethyl-4-oxo-5,6,7,8-tetrahydroquinazolin-3(4H)-yl)ethoxy)phenyl)-5-methylthieno[3,2-b]pyridine-3-carboxylic acid] the same measures were 5 to 20 µM and under 0.1 µM.
For `Cc1cc(-c2cc(Cl)ccc2OCCn2c(C)nc3c(c2=O)C[C@@H](N2CC[C@@H](OC(F)(F)F)C2)CC3)c2scc(C(=O)O)c2n1` (single isomer, unassigned) [Compound 389] the same measures were under 5 µM and under 0.1 µM.
For the molecule `Cc1cc(-c2cc(Cl)ccc2OCCn2c(C)nc3c(c2=O)C[C@@H](N2CCCC[C@H]2c2cccc(C(F)(F)F)c2)CC3)c2scc(C(=O)O)c2n1` (single isomer, unassigned) [Compound 589], the half-maximal inhibitory concentration (IC50) is over 20 µM in assay [1] (Homo sapiens, COLO 205, 72 h) and 0.1 to 0.5 µM on human eIF4E protein.
Turning to `Cc1cc(-c2cc(Cl)ccc2OCCn2c(C)nc3c(c2=O)C[C@@H](N2CCC[C@H](OC(F)(F)F)C2)CC3)c2scc(C(=O)O)c2n1` (single isomer, unassigned) [Compound 472], the concentration for half-maximal inhibition (IC50) is under 5 µM in assay [1] (Homo sapiens, COLO 205, 72 h) and under 0.1 µM on human eIF4E protein.
In the case of `Cc1cc(-c2cc(Cl)ccc2OCCn2c(C)nc3c(c2=O)C[C@H](N2CCC(c4ncccc4F)CC2)CC3)c2scc(C(=O)O)c2n1` (single isomer, unassigned) [Compound 444], the IC50 in assay [1] (Homo sapiens, COLO 205, 72 h) was under 5 µM; on human eIF4E protein, under 0.1 µM.
For `Cc1cc(-c2cc(Cl)ccc2OCCn2c(C)nc3c(c2=O)C[C@@H](N2CCC(c4ccccc4OC(F)(F)F)CC2)CC3)c2scc(C(=O)O)c2n1` (single isomer, unassigned) [Compound 572] the same measures were under 5 µM and under 0.1 µM.
For `Cc1cc(-c2cc(Cl)ccc2OCCn2c(C)nc3c(c2=O)C[C@@H](N2CCO[C@@H](CC(F)(F)F)C2)CC3)c2scc(C(=O)O)c2n1` (single isomer, unassigned) [Compound 524], in that order: under 5 µM and under 0.1 µM.
For `Cc1nc2c(c(=O)n1CC#Cc1ccc(Cl)cc1-c1ccnc3c(C(=O)O)csc13)C[C@H](N1CCC[C@]3(C1)CC3(F)F)CC2` (single isomer, unassigned) [Compound 570, 7-(5-chloro-2-(3-(6-(1,1-difluoro-5-azaspiro[2.5]octan-5-yl)-2-methyl-4-oxo-5,6,7,8-tetrahydroquinazolin-3(4H)-yl)prop-1-yn-1-yl)phenyl)thieno[3,2-b]pyridine-3-carboxylic acid], in that order: under 5 µM and under 0.1 µM.
With `Cc1cc(-c2cc(Cl)ccc2OCCn2c(C)nc3c(c2=O)C[C@H](N2CCCC[C@@H]2C)CC3)c2scc(C(=O)O)c2n1` (single isomer, unassigned) [Compound 436], the IC50 in assay [1] (Homo sapiens, COLO 205, 72 h) is under 5 µM; at human eIF4E protein, under 0.1 µM.
Take `Cc1cc(-c2cc(Cl)ccc2OCCn2c(C)nc3c(c2=O)CC(N2CCC4(CC2)CNCCO4)CC3)c2scc(C(=O)O)c2n1` (single isomer, unassigned) [Compound 528]: the half-maximal inhibitory concentration (IC50) in assay [1] was over 20 µM; on human eIF4E protein it was under 0.1 µM.
Consider `CO[C@H](C1CCN([C@@H]2CCc3nc(C)n(CCOc4ccc(Cl)cc4-c4cc(C)nc5c(C(=O)O)csc45)c(=O)c3C2)CC1)C(F)(F)F` (single isomer, unassigned) [Compound 552], for which the IC50 in assay [1] (Homo sapiens, COLO 205, 72 h) is under 5 µM; on human eIF4E protein, under 0.1 µM.
Regarding `Cc1cc(-c2cc(Cl)ccc2OCCn2c(C)nc3c(c2=O)C[C@@H](N2CCC[C@@]4(C2)CC4(F)F)CC32CC2)c2scc(C(=O)O)c2n1` (single isomer, unassigned) [Compound 582], the half-maximal inhibitory concentration (IC50) was under 5 µM in assay [1] (Homo sapiens, COLO 205, 72 h) and under 0.1 µM on human eIF4E protein.
For `CO[C@@H]1CCN([C@H]2CCc3nc(C)n(CCOc4ccc(Cl)cc4-c4cc(C)nc5c(C(=O)O)csc45)c(=O)c3C2)CC12CC2` (single isomer, unassigned) [Compound 521] the same measures were 5 to 20 µM and under 0.1 µM.
With `Cc1cc(-c2cc(Cl)ccc2OCCn2c(C)nc3c(c2=O)C[C@H](N2CC4(CCC(F)(F)CC4)C2)CC3)c2scc(C(=O)O)c2n1` (single isomer, unassigned) [Compound 131], the concentration for half-maximal inhibition (IC50) is under 5 µM in assay [1] (Homo sapiens, COLO 205, 72 h) and under 0.1 µM on human eIF4E protein.
For `Cc1cc(-c2cc(Cl)ccc2OCCn2c(C)nc3c(c2=O)C[C@H](N2CCCC[C@H]2c2cccc(F)c2)CC3)c2scc(C(=O)O)c2n1` (single isomer, unassigned) [Compound 540] the same measures were under 5 µM and under 0.1 µM.
For `Cc1cc(-c2cc(Cl)ccc2OCCn2c(C)nc3c(c2=O)C[C@@H](N2CCC4(CC2)CC4(F)F)CC3)c2scc(C(=O)O)c2n1` (single isomer, unassigned) [Compound 391], in that order: under 5 µM and under 0.1 µM.
For `Cc1cc(-c2cc(Cl)ccc2OCCn2c(C)nc3c(c2=O)C[C@H](N2CCC(c4cnn(C)c4)CC2)CC3)c2scc(C(=O)O)c2n1` (single isomer, unassigned) [Compound 426], in that order: 5 to 20 µM and under 0.1 µM.
Regarding `Cc1cc(-c2cc(Cl)ccc2OCCn2c(C(F)(F)F)nc3c(c2=O)CC(N2CCC(OC(F)(F)F)CC2)CC3)c2scc(C(=O)O)c2n1` (single isomer, unassigned) [Compound 627], the 50% inhibitory concentration (IC50) in assay [1] (Homo sapiens, COLO 205, 72 h) is over 20 µM; at human eIF4E protein, 0.5 to 5 µM.
For `Cc1cc(-c2cc(Cl)ccc2OCCn2c(C)nc3c(c2=O)C[C@H](N2CCC(COC(F)(F)F)CC2)CC32CC2)c2scc(C(=O)O)c2n1` (single isomer, unassigned) [Compound 560], in that order: under 5 µM and under 0.1 µM.
For `Cc1cc(-c2cc(Cl)ccc2OCCn2c(C)nc3c(c2=O)CC(N2CCc4nc[nH]c4C2)CC3)c2scc(C(=O)O)c2n1` (stereo not shown) [Compound 155] the same measures were over 20 µM and under 0.1 µM.
For `Cc1cc(-c2cc(Cl)ccc2OCCn2c(C)nc3c(c2=O)C[C@H](N2CCC(n4ccnn4)CC2)CC3)c2scc(C(=O)O)c2n1` (single isomer, unassigned) [Compound 422], in that order: 5 to 20 µM and under 0.1 µM.
Consider `COc1cc(CN(CC(F)F)C2CCc3nc(C)n(CCOc4ccc(Cl)cc4-c4cc(C)nc5c(C(=O)O)csc45)c(=O)c3C2)ccn1` (stereo not shown) [Compound 112, 7-[2-[2-[6-[2,2-bis(fluorenyl)ethyl-[(2-methoxy-4-pyridyl)methyl]amino]-2-methyl-4-oxidanylidene-5,6,7,8-tetrahydroquinazolin-3-yl]ethoxy]-5-chloranyl-phenyl]-5-methyl-thieno[3,2-b]pyridine-3-carboxylic acid], for which the IC50 in assay [1] (Homo sapiens, COLO 205, 72 h) is 5 to 20 µM; at human eIF4E protein it was under 0.1 µM.
For `Cc1cc(-c2cc(Cl)ccc2OCCn2c(C)nc3c(c2=O)C[C@@H](N2CCC(c4nc5ccc(F)cc5s4)CC2)CC3)c2scc(C(=O)O)c2n1` (single isomer, unassigned) [Compound 594] the same measures were under 5 µM and under 0.1 µM.
For `Cc1cc(-c2cc(Cl)ccc2OCCn2c(C)nc3c(c2=O)CC(C)(N2CCC4(CC2)CC4(F)F)CC3)c2scc(C(=O)O)c2n1` (single isomer, unassigned) [Compound 556], in that order: under 5 µM and under 0.1 µM.
For `CO[C@H](C1CCN([C@H]2CCc3nc(C)n(CCOc4ccc(Cl)cc4-c4cc(C)nc5c(C(=O)O)csc45)c(=O)c3C2)CC1)C(F)(F)F` (single isomer, unassigned) [Compound 563], in that order: under 5 µM and under 0.1 µM.
For the molecule `Cc1cc(-c2cc(Cl)ccc2OCCn2c(C)nc3c(c2=O)C[C@@H](N(C)[C@H]2CC[C@@](C)(O)C2)CC3)c2scc(C(=O)O)c2n1` (single isomer, unassigned) [Compound 184], the IC50 is over 20 µM in assay [1] (Homo sapiens, COLO 205, 72 h) and under 0.1 µM on human eIF4E protein.
For `Cc1cc(-c2cc(Cl)ccc2OCCn2c(C)nc3c(c2=O)C[C@@H](N2CCC(C(F)(F)F)CC2)CC3)c2scc(C(=O)O)c2n1` (single isomer, unassigned) [Compound 374], in that order: under 5 µM and under 0.1 µM.
For `Cc1cc(-c2cc(Cl)ccc2OCCn2c(C)nc3c(c2=O)C[C@@H](N2CCCC[C@H]2c2cccc(F)c2)CC3)c2scc(C(=O)O)c2n1` (single isomer, unassigned) [Compound 542] the same measures were under 5 µM and under 0.1 µM.
For `Cc1cc(-c2cc(Cl)ccc2OCCn2c(C)nc3c(c2=O)CC(N2CCC4(CCN(CC(F)(F)F)C4)C2)CC3)c2scc(C(=O)O)c2n1` (single isomer, unassigned) [Compound 505], in that order: under 5 µM and under 0.1 µM.
With `Cc1cc(-c2cc(Cl)ccc2OCCn2c(C)nc3c(c2=O)C[C@@H](N2CCO[C@H](CC(F)(F)F)C2)CC3)c2scc(C(=O)O)c2n1` (single isomer, unassigned) [Compound 526], the concentration for half-maximal inhibition (IC50) in assay [1] (Homo sapiens, COLO 205, 72 h) is under 5 µM; at human eIF4E protein it was under 0.1 µM.
